Read-outs that look alike come from different tables or passages of the source. Where a SMILES comes first, the peptide text is derived from it. [ ]: non-standard residue; d: D form. pY = N[C@@H](Cc1ccc(OP(=O)(O)O)cc1)C(=O)O
Molecular target: T1, LNK SH2 domain (Mus musculus, UniProt O09039)
T1 construct: DNA encoding the mouse LNK SH2 domain (residues 324–446) and an N-terminal NusA; NusA (N, cleaved yes); made in house; host or cells: E. coli (tuner (DE3), BL21(DE3) or C43)
Assay: SPR competition assay (immobilised IL6ST pY757 peptide)
Type: binding
Details: for fold decrease in affinity: mutant vs WT JAK2 pY813 peptide
Method: SH2 domains typically bind ligands with a specific preference for amino acids at the −2 to +5 positions, relative to phosphotyrosine. […] To determine the contribution of individual residues, we made a series of mutations within the JAK2 phosphopeptide, and measured their affinity for the LNK SH2 domain via a surface plasmon resonance (SPR) competition assay (Fig. 3). The LNK SH2 domain was incubated with increasing concentrations of mutant JAK2 pY813 peptides before being passed over a chip coated with an immobilised low affinity phosphopeptide derived from a site on the intracellular domain of the IL-6 receptor, IL6ST. […] The +2 residue was not mutated as the structure indicates its sidechain points towards solvent.
The LNK SH2 domain has been proposed to interact with a suite of phosphorylated sites on various signalling proteins[16]–[19],[32]. […] In addition, binding to the activation loops of JAK2 and IRK, and pY785 of JAK3 were also examined. […] Given that SH2 domains will bind to most phosphorylated sequences to some degree, in line with the literature on SH2 domains and their targets[33] we applied a threshold cut-off of 2000 nM, where an IC50 over this value indicates a physiologically irrelevant interaction.
SPR competition assays were performed on either a Biacore 4000 or 200 (GE Healthcare) in 10 mM HEPES (pH 7.4), 150 mM NaCl, 3.4 mM EDTA, 0.005% Tween 20 using a streptavidin coated chip and were regenerated in 50 mM NaOH, 1 M NaCl. A biotinylated peptide representing the IL6ST pY757 sequence was immobilised to the chip by passing over 1 μg/mL of peptide dissolved in 10 mM HEPES pH 7.4, 150 mM NaCl, 3.4 mM EDA, 0.005% Tween 20. 0.1–0.5 μM of WT LNK SH2 domain was pre-incubated with 2, 1, 0.5, 0.25, 0.125 or 0 mM phosphopeptides before being flowed over the chip for 240–720 seconds at 10–30 μL/min. Data was analysed using Prism, the response of LNK in the presence of the peptide was normalised to an LNK only control and then fitted as an IC50 curve via non-linear regression.

[1] = phosphopeptide competition assay, mean of at least two technical replicates from two, three or four independent experiments, read-out: IC50

T1 sequence (O09039 324-446): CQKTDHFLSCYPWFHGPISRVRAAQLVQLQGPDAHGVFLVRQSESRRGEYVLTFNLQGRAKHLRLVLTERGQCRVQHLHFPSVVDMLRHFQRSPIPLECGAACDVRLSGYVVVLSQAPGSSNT

SMILES	IC50 [1]	further results
CC(C)C[C@H](NC(=O)[C@H](CCCNC(=N)N)NC(=O)[C@H](Cc1ccc(OP(=O)(O)O)cc1)NC(=O)[C@H](CC(=O)O)NC(=O)[C@@H]1CCCN1C(=O)[C@@H](NC(=O)[C@@H](N)Cc1ccccc1)[C@@H](C)O)C(=O)N[C@@H](CC(C)C)C(=O)N[C@H](C(=O)N[C@@H](CCC(=O)O)C(=O)N[C@@H](CC(N)=O)C(=O)N[C@@H](CC(=O)O)C(=O)O)[C@@H](C)O [+1R] (H-FTPD[pY]RLLTEND-OH)	–	fold decrease in affinity: > 80 fold
CC(C)C[C@H](NC(=O)[C@@H]1CCCN1C(=O)[C@H](CC(C)C)NC(=O)[C@H](Cc1ccc(OP(=O)(O)O)cc1)NC(=O)[C@H](CO)NC(=O)[C@H](Cc1c[nH]cn1)NC(=O)[C@H](CC(N)=O)NC(=O)[C@H](C)N)C(=O)N[C@@H](CO)C(=O)N[C@@H](Cc1ccc(O)cc1)C(=O)N[C@@H](Cc1c[nH]c2ccccc12)C(=O)N[C@@H](CCC(N)=O)C(=O)O [MPL pY626] (H-ANHS[pY]LPLSYWQ-OH)	–	IC50: 4.89 µM
CC(C)C[C@H](NC(=O)[C@H](C)NC(=O)[C@H](C)NC(=O)[C@@H](NC(=O)[C@H](CC(=O)O)NC(=O)[C@H](CCCNC(=N)N)NC(=O)[C@H](CC(C)C)NC(=O)[C@H](Cc1ccc(OP(=O)(O)O)cc1)NC(=O)[C@H](CCC(N)=O)NC(=O)CNC(=O)[C@H](CC(C)C)NC(=O)[C@@H](N)C(C)C)[C@@H](C)O)C(=O)O [MPL pY552] (H-VLGQ[pY]LRDTAAL-OH; N-terminus and C-terminus assumed)	–	IC50: > 10 µM
CC(C)C[C@H](NC(=O)[C@H](CC(N)=O)NC(=O)[C@@H](NC(=O)[C@H](Cc1ccc(OP(=O)(O)O)cc1)NC(=O)[C@H](CC(=O)O)NC(=O)[C@H](CCCNC(=N)N)NC(=O)[C@@H](N)CCC(=O)O)[C@@H](C)O)C(=O)N1CCC[C@H]1C(=O)N[C@@H](CO)C(=O)O [c-FMS pY923] (H-ERD[pY]TNLPS-OH; N-terminus and C-terminus assumed)	> 10 µM	–
CC(C)C[C@H](NC(=O)[C@H](CCC(=O)O)NC(=O)[C@H](Cc1ccc(OP(=O)(O)O)cc1)NC(=O)[C@H](CC(=O)O)NC(=O)[C@@H]1CCCN1C(=O)[C@@H](NC(=O)[C@@H](N)Cc1ccccc1)[C@@H](C)O)C(=O)N[C@@H](Cc1ccccc1)C(=O)N[C@H](C(=O)N[C@@H](CCC(=O)O)C(=O)N[C@@H](CC(N)=O)C(=O)N[C@@H](CC(=O)O)C(=O)O)[C@@H](C)O [+3F] (H-FTPD[pY]ELFTEND-OH; N-terminus and C-terminus assumed)	–	fold decrease in affinity: ~ 25 fold
CSCC[C@H](NC(=O)[C@H](CC(=O)O)NC(=O)[C@H](CCC(N)=O)NC(=O)[C@H](C)N)C(=O)N[C@@H](Cc1ccc(OP(=O)(O)O)cc1)C(=O)N[C@@H](CCCNC(=N)N)C(=O)N[C@@H](CCCNC(=N)N)C(=O)N[C@@H](CC(C)C)C(=O)N[C@@H](CCC(N)=O)C(=O)N1CCC[C@H]1C(=O)N[C@@H](CO)C(=O)N[C@@H](CS)C(=O)O [MPL pY591] (H-AQDM[pY]RRLQPSC-OH; N-terminus and C-terminus assumed)	> 10 µM	–

Further lines, with some results ahead:

IC50 [1]	SMILES	further results
> 10 µM	CC[C@H](C)[C@H](NC(=O)[C@H](C)N)C(=O)N[C@@H](CCC(=O)O)C(=O)N[C@H](C(=O)N[C@@H](CC(=O)O)C(=O)N[C@@H](CCCCN)C(=O)N[C@@H](CCC(=O)O)C(=O)N[C@@H](Cc1ccc(OP(=O)(O)O)cc1)C(=O)N[C@@H](Cc1ccc(OP(=O)(O)O)cc1)C(=O)N[C@@H](CCCCN)C(=O)N[C@H](C(=O)N[C@@H](CCCCN)C(=O)N[C@@H](CCC(=O)O)C(=O)N1CCC[C@H]1C(=O)NCC(=O)O)C(C)C)[C@@H](C)O [JAK2 pY1007/pY1008] (H-AIETDKE[pY][pY]KVKEPG-OH; N-terminus and C-terminus assumed)	–
> 10 µM	C[C@@H](O)[C@H](NC(=O)[C@@H](N)CCC(=O)O)C(=O)N[C@@H](CC(=O)O)C(=O)N[C@@H](Cc1ccc(OP(=O)(O)O)cc1)C(=O)N[C@@H](Cc1ccc(OP(=O)(O)O)cc1)C(=O)N[C@@H](CCCNC(=N)N)C(=O)N[C@@H](CCCCN)C(=O)NCC(=O)NCC(=O)N[C@@H](CCCCN)C(=O)NCC(=O)O [IRK pY1445/pY1446] (H-ETD[pY][pY]RKGGKG-OH; N-terminus and C-terminus assumed)	–
> 10 µM	CC(C)C[C@H](NC(=O)[C@@H]1CCCN1C(=O)[C@@H](N)CC(C)C)C(=O)N[C@@H](CO)C(=O)N[C@@H](Cc1ccc(OP(=O)(O)O)cc1)C(=O)N[C@@H](Cc1c[nH]c2ccccc12)C(=O)N[C@@H](CCC(N)=O)C(=O)N[C@@H](CCC(N)=O)C(=O)N1CCC[C@H]1C(=O)O [MPL pY631] (H-LPLS[pY]WQQP-OH; N-terminus and C-terminus assumed)	–
> 10 µM	CC(C)C[C@H](NC(=O)[C@H](CS)NC(=O)CNC(=O)[C@H](CC(N)=O)NC(=O)[C@H](CCC(N)=O)NC(=O)[C@H](Cc1ccc(OP(=O)(O)O)cc1)NC(=O)[C@H](CC(C)C)NC(=O)[C@H](Cc1c[nH]c2ccccc12)NC(=O)[C@H](CC(C)C)NC(=O)[C@@H](N)CCC(N)=O)C(=O)N[C@@H](Cc1c[nH]c2ccccc12)C(=O)N[C@@H](Cc1c[nH]c2ccccc12)C(=O)O [EPOR pY309] (H-QLWL[pY]QNGCLWW-OH; N-terminus and C-terminus assumed)	–
> 10 µM	NC(=O)C[C@H](NC(=O)[C@H](CCC(=O)O)NC(=O)[C@H](Cc1ccc(O)cc1)NC(=O)[C@@H]1CCCN1C(=O)[C@H](CC(N)=O)NC(=O)[C@H](CO)NC(=O)[C@H](Cc1ccc(OP(=O)(O)O)cc1)NC(=O)[C@@H]1CCCN1C(=O)CNC(=O)[C@H](CC(=O)O)NC(=O)[C@@H](N)CO)C(=O)N[C@@H](CO)C(=O)O [EPOR pY485] (H-SDGP[pY]SNPYENS-OH; N-terminus and C-terminus assumed)	–
3.81 µM	CC[C@H](C)[C@H](NC(=O)[C@H](Cc1ccc(OP(=O)(O)O)cc1)NC(=O)[C@H](CCC(=O)O)NC(=O)[C@H](Cc1c[nH]cn1)NC(=O)CN)C(=O)N[C@@H](Cc1ccc(O)cc1)C(=O)N[C@H](C(=O)N[C@@H](CC(=O)O)C(=O)N1CCC[C@H]1C(=O)O)C(C)C [PDGFR pY572] (H-GHE[pY]IYVDP-OH)	–
> 10 µM	CC[C@H](C)[C@H](NC(=O)[C@H](C)N)C(=O)N[C@@H](CCC(=O)O)C(=O)N[C@H](C(=O)N[C@@H](CC(=O)O)C(=O)N[C@@H](CCCCN)C(=O)N[C@@H](CCC(=O)O)C(=O)N[C@@H](Cc1ccc(OP(=O)(O)O)cc1)C(=O)N[C@@H](Cc1ccc(O)cc1)C(=O)N[C@@H](CCCCN)C(=O)N[C@H](C(=O)N[C@@H](CCCCN)C(=O)N[C@@H](CCC(=O)O)C(=O)N1CCC[C@H]1C(=O)NCC(=O)O)C(C)C)[C@@H](C)O [JAK2 pY1007] (H-AIETDKE[pY]YKVKEPG-OH; N-terminus and C-terminus assumed)	–
> 10 µM	CSCC[C@H](NC(=O)[C@H](CCC(N)=O)NC(=O)[C@H](CC(C)C)NC(=O)[C@H](CCC(N)=O)NC(=O)[C@H](CO)NC(=O)[C@H](CCC(=O)O)NC(=O)[C@H](Cc1ccc(OP(=O)(O)O)cc1)NC(=O)[C@H](CCCNC(=N)N)NC(=O)[C@H](Cc1ccccc1)NC(=O)[C@H](CCC(N)=O)NC(=O)[C@H](CCCCN)NC(=O)[C@H](CCCCN)NC(=O)[C@@H](N)Cc1ccc(O)cc1)C(=O)O [FLT3 pY572] (H-YKKQFR[pY]ESQLQM-OH; N-terminus and C-terminus assumed)	–
1.93 µM	CC[C@H](C)[C@H](NC(=O)[C@H](Cc1ccc(O)cc1)NC(=O)[C@@H](NC(=O)[C@H](Cc1ccc(OP(=O)(O)O)cc1)NC(=O)[C@H](CC(N)=O)NC(=O)[C@H](CC(N)=O)NC(=O)CN)C(C)C)C(=O)N[C@@H](CC(=O)O)C(=O)N1CCC[C@H]1C(=O)O [c-KIT pY568] (H-GNN[pY]VYIDP-OH)	–

Reference: PMC8528861, “Structural and functional analysis of target recognition by the lymphocyte adaptor protein LNK” (Nature Communications, 2021)
